{
  "source": "patent EP2062885A1",
  "about": "“Acid addition salts of imatinib and formulations comprising the same” (priority 2007, dated 2009)",
  "key": {"Rat": {"tested_on": "Rat", "settings": "cited from earlier work"}, "Rabbit": {"tested_on": "Rabbit", "settings": "cited from earlier work"}, "Mouse": {"tested_on": "Mouse", "settings": "cited from earlier work"}, "[1]": {"assay": "Non-hygroscopicity test (stability chambers, water content by Karl Fischer method)", "type": "physicochemical", "settings": "for Final Moisture Content After 24hrs / Initial Moisture Content: Karl Fischer; for hygroscopic properties: assessment in words, comparable to α and β forms of imatinib mesylate; for Initial Moisture Content: before storage in stability chamber", "method": "The water contents were measured by a well known method, namely Karl Fischer method for determining water quantities."}, "Quail": {"tested_on": "Quail", "settings": "Oral; cited from earlier work"}},
  "note": "Structures can show the parent of a compound that is named as a salt. Where two headings read alike, the source gives them in different places.",
  "data": [
    {"smiles": "N[C@@H](CC(=O)O)C(=O)O", "note": "[Aspartic acid]", "values": [
      {"measurement": "LD50", "setting": "Rat; Oral, Rat", "result": 5000, "unit": "mg/kg"},
      {"measurement": "LD50", "setting": "Rabbit; Skin", "result": 5000, "unit": "mg/kg"}
    ]},
    {"smiles": "CC1(C)C2CCC1(CS(=O)(=O)O)C(=O)C2", "note": "(stereo not drawn) [Camphor sulfonic acid]", "values": [
      {"measurement": "LD50", "setting": "Mouse; Subcutaneous, Mouse", "result": 2502, "unit": "mg/kg"}
    ]},
    {"smiles": "CCCCCCCCCC(=O)O", "note": "[Capric acid]", "values": [
      {"measurement": "LD50", "setting": "Rat; Oral, Rat", "result": 3730, "unit": "mg/kg"},
      {"measurement": "LD50", "setting": "Rabbit; Oral", "result": 1770, "unit": "mg/kg"}
    ]},
    {"smiles": "Cc1ccc(NC(=O)c2ccc(CN3CCN(C)CC3)cc2)cc1Nc1nccc(-c2cccnc2)n1.O=C(O)c1cc(=O)[nH]c(=O)[nH]1", "note": "[Imatinib Orotate, 4-[(4-Methyl-1-piperazinyl)methyl]-N-[4-methyl-3-[[4-(3-pyridinyl)-2-pyrimidinyl]amino]phenyl]-benzamide, orotate]", "values": [
      {"measurement": "Final Moisture Content After 24hrs", "setting": "[1]; 25°C at humidity of 60%", "result": 0.7, "unit": "%"},
      {"measurement": "Final Moisture Content After 24hrs", "setting": "[1]; 40 °C at humidity of 75%", "result": 0.7, "unit": "%"},
      {"measurement": "hygroscopic properties", "setting": "[1]", "result": "considerably low hygroscopic"},
      {"measurement": "Initial Moisture Content", "setting": "[1]", "result": 0.4, "unit": "%"}
    ]},
    {"smiles": "Cc1ccc(NC(=O)c2ccc(CN3CCN(C)CC3)cc2)cc1Nc1nccc(-c2cccnc2)n1", "note": "[Imatinib Oxalate, 4-[(4-Methyl-1-piperazinyl)methyl]-N-[4-methyl-3-[[4-(3-pyridinyl) -2-pyrimidinyl]amino]phenyl]-benzamide, oxalate]", "values": [
      {"measurement": "Final Moisture Content After 24hrs", "setting": "[1]; 25°C at humidity of 60%", "result": 3.4, "unit": "%"},
      {"measurement": "Final Moisture Content After 24hrs", "setting": "[1]; 40 °C at humidity of 75%", "result": 3.6, "unit": "%"},
      {"measurement": "hygroscopic properties", "setting": "[1]", "result": "considerably low hygroscopic"},
      {"measurement": "Initial Moisture Content", "setting": "[1]", "result": 1.6, "unit": "%"}
    ]},
    {"smiles": "CCCCCCCCCCCC(=O)O", "note": "[Lauric acid]", "values": [
      {"measurement": "LD50", "setting": "Rat; Oral, Rat", "result": 12000, "unit": "mg/kg"},
      {"measurement": "LD50", "setting": "Mouse; mouse, in vivo, iv", "result": 131, "unit": "mg/kg"}
    ]},
    {"smiles": "CS(=O)(=O)O", "note": "[Methanesulfonic acid, reference compound]", "values": [
      {"measurement": "LD50", "setting": "Quail", "result": 1000, "unit": "mg/kg"},
      {"measurement": "LD50", "setting": "Rat; rat, in vivo, po", "result": 200, "unit": "mg/kg"}
    ]},
    {"smiles": "CCCCCCCC/C=C\\CCCCCCCC(=O)O", "note": "[Oleic acid]", "values": [
      {"measurement": "LD50", "setting": "Rat; Oral, Rat", "result": 74000, "unit": "mg/kg"},
      {"measurement": "LD50", "setting": "Mouse; Intraperitoneal, Mouse", "result": 282, "unit": "mg/kg"},
      {"measurement": "LD50", "setting": "Mouse; Intravenous, Mouse", "result": 230, "unit": "mg/kg"}
    ]},
    {"smiles": "O=C(O)c1cc(=O)[nH]c(=O)[nH]1", "note": "[Orotic acid]", "values": [
      {"measurement": "LD50", "setting": "Mouse; mouse, in vivo, ip", "result": 841, "unit": "mg/kg"},
      {"measurement": "LD50", "setting": "Mouse; mouse, in vivo, iv", "result": 770, "unit": "mg/kg"},
      {"measurement": "LD50", "setting": "Mouse; mouse, in vivo, po", "result": 2000, "unit": "mg/kg"}
    ]},
    {"smiles": "O=C(O)Cc1ccccc1", "note": "[Phenyl acetic acid]", "values": [
      {"measurement": "LD50", "setting": "Rat; Intraperitoneal, Rat", "result": 1600, "unit": "mg/kg"},
      {"measurement": "LD50", "setting": "Rat; Oral, Rat", "result": 2250, "unit": "mg/kg"}
    ]},
    {"smiles": "Cc1ccc(S(=O)(=O)O)cc1", "note": "[p-Toluene sulfonic acid]", "values": [
      {"measurement": "LD50", "setting": "Rat; Oral, Rat", "result": 2480, "unit": "mg/kg"},
      {"measurement": "LD50", "setting": "Mouse; Oral, Mouse", "result": 400, "unit": "mg/kg"}
    ]}
  ]
}
